Assay results from patent US20110218172A1, “COMPOSITION FOR DOWN-REGULATING PRO-INFLAMMATORY MARKERS” (priority 2010, published 2011).

Assays:
[1] = tested on: Mycobacterium tuberculli induced inflammatory arthritis in rats (injected paw); experiment: Adjuvant-induced developing inflammatory arthritis (prophylactic), injected paw oedema; assay type: in vivo, Wistar rats; conditions: 100 mg/kg oral once daily, day 14, injected paw
Method: Wistar rats, 12-14 weeks old, 140-160 g body weight in groups of 6 were employed in the study. All the animals were maintained in plastic cages at 22±2° C. with 12 h light/dark cycle and free access to pellet food and water. Test materials were administered orally once a day for the duration of the experiment. In all the experiments, a control group was maintained (vehicle administered) whilst the other group received a standard drug acetylsalicylic acid (ASA) administered once daily for comparison and authenticity/credibility of the test. The entire study was carried out after approval from Institutional Animal Ethics Committee and all the animals used in experimental work received humane care. The mean and standard error (S.E.) of the mean for each group was calculated and the results were expressed as percent inhibition compared to control group. The significance was determined statistically by applying Student's t-test.
Adjuvant arthritis was induced by the sub-plantar injection of 0.05 ml freshly prepared suspension (5.0 mg/ml) of steam killed Mycobacterium tuberculosis in liquid paraffin [Newbould BB. Chemotherapy of arthritis induced in rats by mycobacterial adjuvant. Br J Pharmacol 1963; 21:127-36]. The volume of the injected paws was quantitated before and on day 14th after the adjuvant injection and was measured by a volume differential meter model LE 7500N, Panlab, Spain.

[2] = tested on: intracellular TNF-α in murine neutrophils; experiment: Intracellular in vitro TNF-α estimation in LPS-stimulated murine neutrophils (flow cytometry); assay type: cell-based; conditions: 100 μg/ml, 3 h
Method: Cells were stimulated with LPS and incubated with test materials at graded concentrations (μg/ml) for 3 hours, in a CO2 incubator. The permeabilising solution was added to the cells and then these were incubated for 10 min. The cells were then labeled with conjugated anti-mouse TNF-α monoclonal antibody and further incubation of 30 min. duration was carried out in dark. After washing with Phosphate buffered saline, the samples were acquired directly on BD-Cantoll Flowcytometer (Beckton-Dickinson Biosciences, CA, USA). A fluorescence trigger was set on the FL1 parameter of the gated neutrophils populations (10,000 events) and fluorescence compensation, data analysis and data presentation was performed using Cell Quest Pro software. [Clara, B., R. C. Arancha, G. M. Andre's, P. Atanasio, A. Julia, and O. Alberto. 2003. A new method for detecting TNF-α-secreting cells using direct immunofluorescence surface membrane stainings. J. Immuno. Methods 264:77-87.][Khurshid A. Bhat, Bhahwal A. Shah, Kuldeep K. Gupta, Anjali Pandey, Sarang Bani, Subhash C. Taneja. Semi-synthetic analogs of pinitol as potential inhibitors of TNF-a cytokine expression in human neutrophils. Bioorganic & Medicinal Chemistry Letters 19 2009, 1939-1943].

Compound	Oedema Mean ± S.E. [1] [mm]	inhibition at 100 mg/kg ([1]; Mycobacterium, 336 h, read-out: Percentage Activity Against Arthritic Control (↓ percent inhibition)) [%]	% TNF-alpha expression against LPS control (↓ decrease) [2]	intracellular TNF-α expression Mean ± S.E ([2]; n=3)
CC(=O)Oc1ccccc1C(=O)O [ASA, Acetylsalicylic acid]	1.82 ± 0.17	37		
COc1ccc(C2CNC(=O)C2)cc1OC1CCCC1 (stereo not shown) [Rolipram]			71.48↓ %	0.71 ± 0.04
